pIC50: −log10 of the molar value. *1 amine or outer side, *2 acyl side, *3 side chain or, on linkers, in order; H or OH if unused. Where a SMILES comes first, the peptide text is derived from it. Bridges are numbered along the chain shown (N, C = ends). [ ]: non-standard residue; d: D form. The star is where a group is joined. ξ: configuration not given here. Phe(3-CF3) = N[C@@H](Cc1cccc(C(F)(F)F)c1)C(=O)O; X8 = O=C(O)COc1ccc(C[C@H](N[*:1])C(=O)[*:2])cn1; Ala(morpholin-4-yl) = N[C@@H](CN1CCOCC1)C(=O)O; Phe(4-COOH) = N[C@@H](Cc1ccc(C(=O)O)cc1)C(=O)O; Bip = N[C@@H](Cc1ccc(-c2ccccc2)cc1)C(=O)O; Phe(3-Cl) = N[C@@H](Cc1cccc(Cl)c1)C(=O)O; Phe(3-Me) = Cc1cccc(C[C@H](N)C(=O)O)c1; γGlu = O=C(O)[C@H](CCC(=O)[*:2])N[*:1]; NH(CH2)12COOH = O=C(O)CCCCCCCCCCCCN*; Val(3-OH) = CC(C)(O)[C@H](N)C(=O)O; aIle = CC[C@@H](C)[C@H](N)C(=O)O; 4Pal = N[C@@H](Cc1ccncc1)C(=O)O; Cha = N[C@@H](CC1CCCCC1)C(=O)O; Cit = NC(=O)NCCC[C@H](N)C(=O)O; Thr(3ξ) = CC(O)[C@H](N)C(=O)O; Carboxymethyl = O=C(O)C*; NMeA = CN[C@@H](C)C(=O)O; Orn = NCCC[C@H](N)C(=O)O; dDap = NC[C@@H](N)C(=O)O; Aun = NCCCCCCCCCCC(=O)O; Dab = NCC[C@H](N)C(=O)O; AEEA = NCCOCCOCC(=O)O

The pIC50 is −log10 of the IC50, conventionally taken in molar units.

In the first experiment the target is T1, PD-1/PD-L1 interaction (PE-labeled human PD-L1-Ig binding to Jurkat cell line over-expressing human PD-1) (Homo sapiens, UniProt Q15116).
T1 construct: expressed in transfected cells; host or cells: Jurkat
T1 sequence (Q15116 25-288): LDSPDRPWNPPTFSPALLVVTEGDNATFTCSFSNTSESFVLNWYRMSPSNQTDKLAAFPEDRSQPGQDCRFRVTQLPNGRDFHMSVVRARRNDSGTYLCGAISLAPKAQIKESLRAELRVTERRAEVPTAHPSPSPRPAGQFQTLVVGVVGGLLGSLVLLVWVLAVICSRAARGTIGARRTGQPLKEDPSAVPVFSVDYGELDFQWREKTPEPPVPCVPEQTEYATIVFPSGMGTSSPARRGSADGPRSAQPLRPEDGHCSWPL
Put plainly: Jurkat-PD-1 Cell Binding High-Content Screening Assay (CBA). The following applies: Jurkat-hPD-1 cells, PE-labeled PD-L1-Ig 20 nM final; read-out: Jurkat HPD1 PDL1 IC50. A digest of the protocol: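 High-content imaging read-out of PE-PD-L1-Ig binding (20 nM final, 1 h) to Jurkat-hPD-1 cells, after 2 h compound exposure at 37 °C in DMEM with 10% FCS. Nuclei counterstained with Hoechst 33342 after paraformaldehyde fixation.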
Regarding `Cc1cccc(C[C@@H]2NC(=O)[C@H](CC(=O)O)NC(=O)[C@H](Cc3ccc(C(=O)O)cc3)NC(=O)[C@H](CCN)NC(=O)CSC[C@@H](C(=O)N[C@@H](CCN)C(=O)NCCCCCCCCCCC(=O)O)NC(=O)[C@H](CO)NC(=O)[C@H](C(C)(C)O)NC(=O)[C@H](CC3CCCCC3)NC(=O)[C@H](CCN)NC(=O)[C@@H](CC(C)C)NC(=O)[C@H](C)N(C)C(=O)[C@H](Cc3ccc(OCC(=O)O)cc3)NC(=O)[C@H](Cc3ccc(-c4ccccc4)cc3)NC(=O)[C@H](Cc3cccc(Cl)c3)NC2=O)c1` [Example 1297] ({CH2CO}-[Dab][Phe(4-COOH)]D[Phe(3-Me)][Phe(3-Cl)][Bip]Y(Carboxymethyl)[NMeA][dL][Dab][Cha][Val(3-OH)]SC[Dab][Aun]-OH; thioether N-14), the pIC50 is 7.48.

As to `CC(C)C[C@@H]1NC(=O)[C@H](Cc2c[nH]c3ccccc23)NC(=O)[C@H](CC(=O)O)NC(=O)[C@H](Cc2ccc(C(=O)O)cc2)NC(=O)[C@H](Cc2ccc(OCC(=O)O)cc2)NC(=O)CSC[C@@H](C(=O)N[C@@H](CCC(=O)O)C(=O)NCC(=O)NCCCCCCCCCCC(=O)O)NC(=O)[C@H](CO)NC(=O)[C@H](C(C)C)NC(=O)[C@H](CC2CCCCC2)NC(=O)[C@H](CCN)NC(=O)[C@@H](CC(C)C)NC(=O)[C@H](C)N(C)C(=O)[C@H](C(C)C)NC(=O)[C@H](Cc2ccc(-c3ccccc3)cc2)NC1=O` [Example 1035] ({CH2CO}-Y(Carboxymethyl)[Phe(4-COOH)]DWL[Bip]V[NMeA][dL][Dab][Cha]VSCEG[Aun]-OH; thioether N-14), the pIC50 was 7.71.

For `Cc1cccc(C[C@@H]2NC(=O)[C@H](CC(=O)O)NC(=O)[C@H](Cc3ccc(C(=O)O)cc3)NC(=O)[C@H](Cc3ccncc3)NC(=O)CSC[C@@H](C(=O)N[C@@H](CCN)C(=O)NCCOCCOCC(=O)NCCCCCCCCCCC(=O)O)NC(=O)[C@H](CCCN)NC(=O)[C@H](C(C)C)NC(=O)[C@H](CC3CCCCC3)NC(=O)[C@H](CCN)NC(=O)[C@@H](CC(C)C)NC(=O)[C@H](C)N(C)C(=O)[C@H](Cc3ccc(OCC(=O)O)cc3)NC(=O)[C@H](Cc3ccc(-c4ccccc4)cc3)NC(=O)[C@H](Cc3ccc(OCC(=O)O)cc3)NC2=O)c1` [Example 1405] ({CH2CO}-[4Pal][Phe(4-COOH)]D[Phe(3-Me)]Y(Carboxymethyl)[Bip]Y(Carboxymethyl)[NMeA][dL][Dab][Cha]V[Orn]C[Dab][AEEA][Aun]-OH; thioether N-14), the pIC50 is 7.63. Consider `Cc1cccc(C[C@@H]2NC(=O)[C@H](CC(=O)O)NC(=O)[C@H](Cc3ccc(OCC(=O)O)cc3)NC(=O)[C@H]([C@@H](C)O)NC(=O)CSC[C@@H](C(=O)NCCOCCOCC(=O)NCCCCCCCCCCC(=O)O)NC(=O)[C@H](CO)NC(=O)[C@H](C(C)(C)O)NC(=O)[C@H](CC3CCCCC3)NC(=O)[C@H](CCN)NC(=O)[C@@H](CC(C)C)NC(=O)[C@H](C)N(C)C(=O)[C@H](CCCNC(N)=O)NC(=O)[C@H](Cc3ccc(-c4ccccc4)cc3)NC(=O)[C@H](C(C)C)NC2=O)c1` [Example 1403] ({CH2CO}-TY(Carboxymethyl)D[Phe(3-Me)]V[Bip][Cit][NMeA][dL][Dab][Cha][Val(3-OH)]SC[AEEA][Aun]-OH; thioether N-14), for which the pIC50 was 8.30. For the compound `CC(C)C[C@@H]1NC(=O)[C@H](Cc2c[nH]c3ccccc23)NC(=O)[C@H](CC(=O)O)NC(=O)[C@H](Cc2ccncc2)NC(=O)[C@H](Cc2ccc(OCC(=O)O)nc2)NC(=O)CSC[C@@H](C(=O)N[C@@H](CCN)C(=O)NCCCCCCCCCCC(=O)O)NC(=O)[C@H](CCC(N)=O)NC(=O)[C@H](C(C)C)NC(=O)[C@H](CC2CCCCC2)NC(=O)[C@H](CCN)NC(=O)[C@@H](CC(C)C)NC(=O)[C@H](C)N(C)C(=O)[C@H](C(C)C)NC(=O)[C@H](Cc2ccc(-c3ccccc3)cc2)NC1=O` [Example 1343] ({CH2CO}-[X8][4Pal]DWL[Bip]V[NMeA][dL][Dab][Cha]VQC[Dab][Aun]-OH; thioether N-14), the pIC50 was 7.41. With `CC[C@H](C)[C@@H]1NC(=O)[C@H](Cc2ccc(-c3ccccc3)cc2)NC(=O)[C@H](CC(C)C)NC(=O)[C@H](Cc2c[nH]c3ccccc23)NC(=O)[C@H](CC(=O)O)NC(=O)[C@H](Cc2ccc(C(=O)O)cc2)NC(=O)[C@H](Cc2ccc(OCC(=O)O)cc2)NC(=O)CSC[C@@H](C(=O)N[C@@H](Cc2c[nH]cn2)C(=O)NCCCCCCCCCCC(=O)O)NC(=O)[C@H](CO)NC(=O)[C@H](C(C)C)NC(=O)[C@H](CC2CCCCC2)NC(=O)[C@H](CCN)NC(=O)[C@@H](CC(C)C)NC(=O)[C@H](C)N(C)C1=O` [Example 1075] ({CH2CO}-Y(Carboxymethyl)[Phe(4-COOH)]DWL[Bip]I[NMeA][dL][Dab][Cha]VSCH[Aun]-OH; thioether N-14), the pIC50 is 7.69. As for `CC(C)C[C@H]1NC(=O)[C@H](C)N(C)C(=O)[C@H](C(C)C)NC(=O)[C@H](Cc2ccc(-c3ccccc3)cc2)NC(=O)[C@H](C(C)C)NC(=O)[C@H](Cc2c[nH]c3ccccc23)NC(=O)[C@H](CC(=O)O)NC(=O)[C@H](Cc2ccc(C(=O)O)cc2)NC(=O)[C@H](Cc2ccc(OCC(=O)O)cc2)NC(=O)CSC[C@@H](C(=O)N[C@@H](CCCCN)C(=O)NCCOCCOCC(=O)NCCCCCCCCCCC(=O)O)NC(=O)[C@H](CO)NC(=O)[C@H](C(C)C)NC(=O)[C@H](CC2CCCCC2)NC(=O)[C@H](CCN)NC1=O` [Example 2101] ({CH2CO}-Y(Carboxymethyl)[Phe(4-COOH)]DWV[Bip]V[NMeA][dL][Dab][Cha]VSCK[AEEA][Aun]-OH; thioether N-14), the pIC50 was 7.84. `CC[C@@H](C)[C@@H]1NC(=O)[C@H](Cc2ccc(-c3ccccc3)cc2)NC(=O)[C@H](C(C)C)NC(=O)[C@H](Cc2c[nH]c3ccccc23)NC(=O)[C@H](CC(=O)O)NC(=O)[C@H](Cc2ccc(OCC(=O)O)cc2)NC(=O)[C@H](Cc2ccncc2)NC(=O)CSC[C@@H](C(=O)N[C@H](CN)C(=O)NCCOCCOCC(=O)N[C@@H](CCC(=O)NCCOCCOCC(=O)N[C@@H](CCC(=O)NCCOCCOCC(=O)N[C@@H](CCCN)C(=O)NCCCCCCCCCCC(=O)O)C(=O)O)C(=O)O)NC(=O)[C@H](Cc2c[nH]cn2)NC(=O)[C@H](C(C)C)NC(=O)[C@H](CC2CCCCC2)NC(=O)[C@H](CC(N)=O)NC(=O)[C@@H](CC(C)C)NC(=O)[C@H](C)N(C)C1=O` [Example 2013] ({CH2CO}-[4Pal]Y(Carboxymethyl)DWV[Bip][aIle][NMeA][dL]N[Cha]VHC[dDap][AEEA][γGlu][AEEA][γGlu][AEEA][Orn][Aun]-OH; thioether N-14): the pIC50 is 7.13. Consider `CC(C)C[C@H]1NC(=O)[C@H](C)N(C)C(=O)[C@H](CCCNC(N)=O)NC(=O)[C@H](Cc2ccc(-c3ccccc3)cc2)NC(=O)[C@H](Cc2ccc(C(=O)O)cc2)NC(=O)[C@H](Cc2cccc(C(F)(F)F)c2)NC(=O)[C@H](CC(=O)O)NC(=O)[C@H](Cc2ccc(OCC(=O)O)cc2)NC(=O)[C@H](CN2CCOCC2)NC(=O)CSC[C@@H](C(=O)N[C@@H](CCN)C(=O)NCCOCCOCC(=O)N[C@@H](CCC(=O)NCCOCCOCC(=O)NCCCCCCCCCCCCC(=O)O)C(=O)O)NC(=O)[C@H](CC(=O)O)NC(=O)[C@H](C(C)(C)O)NC(=O)[C@H](CC2CCCCC2)NC(=O)[C@H](CCN)NC1=O` [Example 1175] ({CH2CO}-[Ala(morpholin-4-yl)]Y(Carboxymethyl)D[Phe(3-CF3)][Phe(4-COOH)][Bip][Cit][NMeA][dL][Dab][Cha][Val(3-OH)]DC[Dab][AEEA][γGlu][AEEA]-{NH(CH2)12COOH}; thioether N-14), for which the pIC50 was 7.31.

The experiment is the same for the next values; noted with them: PE-labeled PD-L1-Ig 20 nM final, Jurkat-hPD-1 cells; read-out: Jurkat HPD1 PDL1 IC50.
As to `CC(C)C[C@@H]1NC(=O)[C@H](Cc2c[nH]c3ccccc23)NC(=O)[C@H](CC(=O)O)NC(=O)[C@H](Cc2ccc(C(=O)O)cc2)NC(=O)[C@H](Cc2ccc(OCC(=O)O)cc2)NC(=O)CSC[C@@H](C(=O)NCCOCCOCC(=O)NCCCCCCCCCCC(=O)O)NC(=O)[C@H](CO)NC(=O)[C@H](C(C)O)NC(=O)[C@H](CC2CCCCC2)NC(=O)[C@H](CCN)NC(=O)[C@@H](CC(C)C)NC(=O)[C@H](C)N(C)C(=O)[C@H](C(C)C)NC(=O)[C@H](Cc2ccc(-c3ccccc3)cc2)NC1=O` (stereo partly drawn) [Example 2433] ({CH2CO}-Y(Carboxymethyl)[Phe(4-COOH)]DWL[Bip]V[NMeA][dL][Dab][Cha][Thr(3ξ)]SC[AEEA][Aun]-OH; thioether N-14), the pIC50 is 7.45. Regarding `Cc1cccc(C[C@@H]2NC(=O)[C@H](CC(=O)O)NC(=O)[C@H](Cc3ccc(OCC(=O)O)cc3)NC(=O)[C@H](C(C)C)NC(=O)CSC[C@@H](C(=O)N[C@@H](CCN)C(=O)NCCOCCOCC(=O)NCCCCCCCCCCC(=O)O)NC(=O)[C@H](CCC(=O)O)NC(=O)[C@H](C(C)(C)O)NC(=O)[C@H](CC3CCCCC3)NC(=O)[C@H](CCN)NC(=O)[C@@H](CC(C)C)NC(=O)[C@H](C)N(C)C(=O)[C@H](Cc3ccc(C(=O)O)cc3)NC(=O)[C@H](Cc3ccc(-c4ccccc4)cc3)NC(=O)[C@H](Cc3ccc(C(=O)O)cc3)NC2=O)c1` [Example 2511] ({CH2CO}-VY(Carboxymethyl)D[Phe(3-Me)][Phe(4-COOH)][Bip][Phe(4-COOH)][NMeA][dL][Dab][Cha][Val(3-OH)]EC[Dab][AEEA][Aun]-OH; thioether N-14), the pIC50 is 7.79. Turning to `Cc1cccc(C[C@@H]2NC(=O)[C@H](CC(=O)O)NC(=O)[C@H](Cc3ccc(OCC(=O)O)cc3)NC(=O)[C@H](C(C)O)NC(=O)CSC[C@@H](C(=O)N[C@@H](CCN)C(=O)NCCOCCOCC(=O)N[C@@H](CCC(=O)NCCOCCOCC(=O)NCCCCCCCCCCCCC(=O)O)C(=O)O)NC(=O)[C@H](CCC(=O)O)NC(=O)[C@H](C(C)C)NC(=O)[C@H](CC3CCCCC3)NC(=O)[C@H](CCN)NC(=O)[C@@H](CC(C)C)NC(=O)[C@H](C)N(C)C(=O)[C@H](Cc3ccc(OCC(=O)O)cc3)NC(=O)[C@H](Cc3ccc(-c4ccccc4)cc3)NC(=O)[C@H](Cc3ccc(OCC(=O)O)cc3)NC2=O)c1` (stereo partly drawn) [Example 2656] ({CH2CO}-[Thr(3ξ)]Y(Carboxymethyl)D[Phe(3-Me)]Y(Carboxymethyl)[Bip]Y(Carboxymethyl)[NMeA][dL][Dab][Cha]VEC[Dab][AEEA][γGlu][AEEA]-{NH(CH2)12COOH}; thioether N-14), the pIC50 is 7.07.

For the origin of these results see US20260070945A1, “MACROCYCLIC IMMUNOMODULATORS” (Bristol-Myers Squibb Company, priority 2022, published 2026).
